Test results from publication PMC11571012, “Synthesis and Preclinical Evaluation of a Bispecific PSMA-617/RM2 Heterodimer Targeting Prostate Cancer” (ACS Medicinal Chemistry Letters, 2024).
Read-outs that look alike come from different tables or passages of the source.

Tests used:
PC-3 tumors = conditions: in vivo; cited from earlier work
[1] = target: T1, PSMA receptor in LNCaP cells (PSMA+, GRPR-) (Homo sapiens, UniProt Q04609); assay: Cell-based competitive binding assay in LNCaP cells against [68Ga]Ga-PSMA-10; conditions: 10^5 cells/well, against [68Ga]Ga-PSMA-10 0.75 nM, analyte 0–5000 nM, 45 min, gamma counter, quadruplicate
T1 construct: Briefly, LNCaP 10 5 cells per well; host or cells: LNCaP cells
Procedure: Each value was measured in quadruplicate.
Cell Culture & cell assays
In vitro and in vivo experiments were performed with the following cell lines: the GRPR positive PC -3 cells
supplemented with 10% fetal calf serum and 2 mM L -glutamine (Invitrogen, Carlsbad, CA, USA). Cells
were grown at 37 °C in humidified air with 5% CO 2. Trypsin-ethylenediaminetetraacetic acid (trypsin -
EDTA; 0.25% tryps in, 0.02% EDTA, Invitrogen) was used for cell harvesting.
Determination of Binding Affinity in LNCaP and PC -3 cells
3-5 Briefly, LNCaP 10 5 cells per well
PSMA-10, precursor purchased from ABX, Radeberg , Germany) and an ascending series of 12 different
45 min). This mixture was removed after incubation and the wells were washed on a multiscreen vacuum
manifold (Millipore, Billerica, MA) three times with PBS. The following detection of cell-bound
radioactivity was measured using a gamma counter (Packard Cobra II, GMI, Minnesota, USA).
fitted with a nonlinear regression algorithm (GraphPad Software) to determine the 50% inhibitory
concentration (IC50) values.
min. After incubation the mixture was removed, the wells were washed with PBS and the cell -bound
radioactivity was measured using a gamma counter (Hidex AMG - Automated Gamma Counter).

[2] = Radio RP-HPLC analysis (elution order); conditions: radiolabeled ligands; Chromolith RP-18e, 0−100% AcCN (0.1% TFA) in 6 min, 4 mL/min; said to agree with logD
PSMA (LNCaP, PC-3 PIP) = conditions: read-out: Ki, LNCaP (literature), LNCaP cells, literature data, ref 2 (SI); cited from earlier work
Procedure: This mixture was removed after incubation and the wells were washed on a multiscreen vacuum manifold (Millipore, Billerica, MA) three times with PBS. The following detection of cell-bound radioactivity was measured using a gamma counter (Packard Cobra II, GMI, Minnesota, USA).

[3] = target: T1, PSMA receptor in LNCaP cells (PSMA+, GRPR-); conditions: standard used at C = 0.75 nM; no reference given; read-out: IC50 of standard radioligand (PSMA); cited from earlier work

T1 sequence (Q04609 whole entry): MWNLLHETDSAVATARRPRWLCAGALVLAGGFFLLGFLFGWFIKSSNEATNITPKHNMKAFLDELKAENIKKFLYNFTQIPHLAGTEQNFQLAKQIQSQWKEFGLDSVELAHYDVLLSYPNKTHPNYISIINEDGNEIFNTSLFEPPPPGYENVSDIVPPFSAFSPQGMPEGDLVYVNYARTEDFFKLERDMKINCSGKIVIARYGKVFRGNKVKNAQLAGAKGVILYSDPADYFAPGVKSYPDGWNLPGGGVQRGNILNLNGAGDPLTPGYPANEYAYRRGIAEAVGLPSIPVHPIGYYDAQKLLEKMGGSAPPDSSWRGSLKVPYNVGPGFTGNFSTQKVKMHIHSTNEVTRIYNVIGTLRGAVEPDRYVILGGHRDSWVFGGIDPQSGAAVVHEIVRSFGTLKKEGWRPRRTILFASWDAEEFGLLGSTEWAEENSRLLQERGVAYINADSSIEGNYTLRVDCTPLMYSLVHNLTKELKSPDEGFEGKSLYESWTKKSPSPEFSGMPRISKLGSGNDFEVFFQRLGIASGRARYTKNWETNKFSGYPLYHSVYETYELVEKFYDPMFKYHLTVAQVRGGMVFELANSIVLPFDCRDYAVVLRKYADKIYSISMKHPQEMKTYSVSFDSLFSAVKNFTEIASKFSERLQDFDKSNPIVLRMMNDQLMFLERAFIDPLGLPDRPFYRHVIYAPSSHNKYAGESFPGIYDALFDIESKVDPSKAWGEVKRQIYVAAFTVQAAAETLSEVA

Molecule: CC(C)C[C@H](NC(=O)C[C@H](O)[C@H](CC(C)C)NC(=O)[C@H](Cc1c[nH]cn1)NC(=O)CNC(=O)[C@@H](NC(=O)[C@H](C)NC(=O)[C@H](Cc1c[nH]c2ccccc12)NC(=O)[C@H](CCC(N)=O)NC(=O)[C@@H](Cc1ccccc1)NC(=O)CN1CCC(NC(=O)CN2CCN(CC(=O)O)CCN(CC(=O)O)CCN(CC(=O)O)CC2)CC1)C(C)C)C(N)=O [[68Ga]Ga-RM2] [metal not drawn]
- Kidneys uptake (PC-3 tumors): 3.34 ± 0.54 % ID/g

Molecule: O=C(O)CC[C@H](NC(=O)N[C@@H](CCCCNC(=O)[C@H](Cc1ccc2ccccc2c1)NC(=O)[C@H]1CC[C@H](CNC(=O)CN2CCN(CC(=O)O)CCN(CC(=O)O)CCN(CC(=O)O)CC2)CC1)C(=O)O)C(=O)O [PSMA-617 (1), vipivotide tetraxetan]
- IC50 [1]: 6.41 nM
- Elution order in radio RP-HPLC [2]: eluted first
- Ki (PSMA (LNCaP, PC-3 PIP)): 2.34 nM

Molecule: [Glu-urea-Lys(Ahx)]2-HBED-CC [[^68Ga]Ga-PSMA-10]
- IC50 [3]: 3.8 ± 1.8 nM
